Read-outs that look alike come from different tables or passages of the source.
Tests used:
[1] = biological target: T1, M4 muscarinic receptor (Homo sapiens, UniProt P08173); test: Functional mobilization of intracellular calcium (FLIPR) in M4-CHO cells; assay type: cell-based
T1 construct: expressed in transfected cells; host or cells: CHO (M4-CHO)
T1 sequence (P08173 1-479): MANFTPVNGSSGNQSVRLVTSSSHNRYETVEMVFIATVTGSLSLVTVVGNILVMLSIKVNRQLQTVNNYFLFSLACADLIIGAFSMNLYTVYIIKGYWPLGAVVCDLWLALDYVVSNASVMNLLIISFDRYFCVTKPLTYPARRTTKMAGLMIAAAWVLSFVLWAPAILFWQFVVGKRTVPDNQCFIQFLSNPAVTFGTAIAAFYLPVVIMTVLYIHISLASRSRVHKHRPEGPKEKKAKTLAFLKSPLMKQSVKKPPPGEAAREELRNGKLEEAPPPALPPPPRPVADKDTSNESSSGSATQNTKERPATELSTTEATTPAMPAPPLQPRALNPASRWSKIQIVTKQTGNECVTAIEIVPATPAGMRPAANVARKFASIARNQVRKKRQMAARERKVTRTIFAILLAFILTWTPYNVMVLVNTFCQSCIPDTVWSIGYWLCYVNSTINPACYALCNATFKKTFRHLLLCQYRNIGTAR
In short: (§1)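 FLIPR Ca2+ read, ex 488/em 540 nm, 60 s. Recombinant CHO lines (M1 or M4), dye-loaded Fluo-3 AM 60-90 min at 37° C, probenecid 1 mM, pH 7.4. Agonist: compound alone; inhibition: 15 min compound pre-incubation, then carbachol at EC80 for that subtype.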

[2] = biological target: T2, M1 muscarinic receptor (Homo sapiens, UniProt P11229); test: Functional mobilization of intracellular calcium (FLIPR) in M1-CHO cells; assay type: cell-based
T2 construct: expressed in transfected cells; host or cells: CHO (M1-CHO)
T2 sequence (P11229 1-460): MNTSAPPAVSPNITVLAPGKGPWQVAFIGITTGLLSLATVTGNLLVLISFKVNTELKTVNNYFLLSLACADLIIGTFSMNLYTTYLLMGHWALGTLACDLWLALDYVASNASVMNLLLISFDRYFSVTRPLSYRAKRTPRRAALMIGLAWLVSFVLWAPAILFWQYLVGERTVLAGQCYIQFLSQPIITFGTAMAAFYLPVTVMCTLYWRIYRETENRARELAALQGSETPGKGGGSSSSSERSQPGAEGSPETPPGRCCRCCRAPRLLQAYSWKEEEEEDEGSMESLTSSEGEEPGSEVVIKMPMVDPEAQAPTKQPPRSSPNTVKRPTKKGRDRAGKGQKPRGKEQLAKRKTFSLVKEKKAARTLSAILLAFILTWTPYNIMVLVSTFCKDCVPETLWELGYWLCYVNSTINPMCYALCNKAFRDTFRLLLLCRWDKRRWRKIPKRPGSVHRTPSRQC
In short: as §1

[3] = M4 receptor, calcium mobilization
[4] = M4 receptor, calcium mobilization, read-out: M4 Efficacy
[5] = M1 receptor, calcium mobilization
[6] = M1 receptor, calcium mobilization, read-out: M1 Efficacy
[7] = Table 4, 100% efficacy is the maximum response obtained with the Carbachol control
[8] = Table 4, modulating M4 receptor
[9] = Table 4, modulating M1 receptor
[10] = Table 4, M4 receptor, calcium mobilization (FLIPR)
[11] = Table 4, M1 receptor, calcium mobilization (FLIPR)

SMILES | M4 Activity [1, 3] | Emax [1, 4] | M1 Activity [2, 5] | Emax [2, 6] | Emax [1, 7] | M4 Activity [1, 8] | Emax [2, 7] | M1 Activity [2, 9] | M4 Activity [1, 10] | M1 Activity [2, 11]
CC(=O)N1CC2(CCN(CC3CC4CCC3C4)CC2)c2cc(C)ccc21 (stereo not drawn) [compound 118] | x (activity was measured to be greater than 1.0 μM) | < 65% | xxx (activity was measured to be less than 0.1 μM) | 65 to 85% | – | – | – | – | – | –
O=C1Nc2ccccc2C12CCN(CC1CC3C=CC1C3)CC2 (stereo not drawn) [compound 7] | xx (activity was measured to be between 0.1 μM and 1.0 μM) | > 85% | xxx (activity was measured to be less than 0.1 μM) | 65 to 85% | – | – | – | – | – | –
COCCOC(=O)N1C2CCC1CC(N1CCC3(CC1)CN(C(C)=O)c1ccccc13)C2 (stereo not drawn) [compound 607] | – | – | – | – | 25 to 100% | xxx (activity was measured to be less than 2.0 μM) | 25 to 100% | xxx (activity was measured to be less than 2.0 μM) | – | –
Cc1ccc(N2CCC(N3CCC4(CC3)CN(C(=O)N(C)C)c3ccc(F)cc34)CC2)nn1 [compound 594] | – | – | – | – | < 25% | xx (activity was measured to be between 2.0 μM and 5.0 μM) | 25 to 100% | x (activity was measured to be greater than 5.0 μM) | – | –
COC(=O)N1CC2(CCN(C3CC4CCC(C3)N4C(=O)OCC(C)C)CC2)c2cc(F)ccc21 (stereo not drawn) [compound 287] | x (activity was measured to be greater than 1.0 μM) | < 65% | xx (activity was measured to be between 0.1 μM and 1.0 μM) | < 65% | – | – | – | – | – | –
CCOC(=O)N1CCC(CN2CCC3(CC2)CN(C(C)=O)c2ccc(OC)cc23)CC1 [compound 237] | xx (activity was measured to be between 0.1 μM and 1.0 μM) | < 65% | xxx (activity was measured to be less than 0.1 μM) | < 65% | – | – | – | – | – | –
Cc1ccc2c(c1)C(=O)CC21CCN(CC2C[C@H]3CC[C@H]2C3)CC1 (stereo partly drawn) [compound 470] | – | – | – | – | 25 to 100% | xx (activity was measured to be between 2.0 μM and 5.0 μM) | 25 to 100% | xx (activity was measured to be between 2.0 μM and 5.0 μM) | – | –
CC(=O)N1CC2(CCN(CC3=CCCCC3)CC2)c2cc(F)ccc21 [compound 163] | xx (activity was measured to be between 0.1 μM and 1.0 μM) | > 85% | xxx (activity was measured to be less than 0.1 μM) | 65 to 85% | – | – | – | – | – | –
O=C(N[C@H]1CC2(CCN(C3CCCCC3)CC2)c2ccccc21)C1CC1 [compound 779] | – | – | – | – | < 25% | xxx (activity was measured to be less than 2.0 μM) | 25 to 100% | xx (activity was measured to be between 2.0 μM and 5.0 μM) | – | –
COCCOC(=O)N1CC2(CCN(C3CC4CCC(C3)N4C(=O)O[C@@H]3CCOC3)CC2)c2cc(F)ccc21 (stereo partly drawn) [compound 304] | x (activity was measured to be greater than 1.0 μM) | < 65% | xxx (activity was measured to be less than 0.1 μM) | 65 to 85% | – | – | – | – | – | –
CCOC(=O)N1CCC(N2CCC3(CC2)CN(C(=O)c2ccc(OC(F)(F)F)cc2)c2ccc(F)cc23)CC1 [compound 66] | xxx (activity was measured to be less than 0.1 μM) | > 85% | xxx (activity was measured to be less than 0.1 μM) | > 85% | – | – | – | – | – | –
CC(=O)N1CC2(CCN(C3CC4CCC(C3)N4C(=O)OC3CCC3)CC2)c2cc(F)ccc21 (stereo not drawn) [compound 174] | x (activity was measured to be greater than 1.0 μM) | 65 to 85% | xxx (activity was measured to be less than 0.1 μM) | > 85% | – | – | – | – | – | –
CC(=O)N1CC2(CCN(C3CCN(c4nccs4)CC3)CC2)c2cc(F)ccc21 [compound 976] | – | – | – | – | 25 to 100% | – | 25 to 100% | – | xxx (activity was measured to be less than 2.0 μM) | xxx (activity was measured to be less than 2.0 μM)
CC(=O)N1CC2(CCN(C3CCN(C(=O)OCC(F)F)CC3)CC2)c2cc(C)ccc21 [compound 829] | – | – | – | – | 25 to 100% | – | 25 to 100% | – | xxx (activity was measured to be less than 2.0 μM) | xxx (activity was measured to be less than 2.0 μM)
COc1cc2c(cc1OC)C1(CCN(C3CCCCC3)CC1)C[C@@H]2NC(C)=O [compound 521] | – | – | – | – | < 25% | x (activity was measured to be greater than 5.0 μM) | < 25% | x (activity was measured to be greater than 5.0 μM) | – | –
CC(=O)N1CC2(CCN(C3CC[C@@H]4CC[C@@H]3C4)CC2)c2cc(F)ccc21 (stereo partly drawn) [compound 251] | x (activity was measured to be greater than 1.0 μM) | 65 to 85% | xx (activity was measured to be between 0.1 μM and 1.0 μM) | 65 to 85% | – | – | – | – | – | –
CN(C)C(=O)N[C@H]1CCC2(CCN(C3CC4CCC(C4)C3)CC2)c2ccccc21 (stereo partly drawn) [compound 468] | – | – | – | – | 25 to 100% | xxx (activity was measured to be less than 2.0 μM) | 25 to 100% | xx (activity was measured to be between 2.0 μM and 5.0 μM) | – | –
O=C1CC2(CCN(C3CCCCCC3)CC2)c2ccc(Cl)cc21 [compound 609] | – | – | – | – | 25 to 100% | xxx (activity was measured to be less than 2.0 μM) | 25 to 100% | xx (activity was measured to be between 2.0 μM and 5.0 μM) | – | –
CCO/N=C1\CC2(CCN([C@@H]3C[C@@H]4CC[C@@H]3C4)CC2)c2cc(Cl)ccc21 [compound 865] | – | – | – | – | 25 to 100% | – | 25 to 100% | – | xxx (activity was measured to be less than 2.0 μM) | xx (activity was measured to be between 2.0 μM and 5.0 μM)
CC(=O)N[C@@H]1CCC2(CCN(CC3CCCCC3)CC2)c2ccccc21 [compound 882] | – | – | – | – | < 25% | – | < 25% | – | x (activity was measured to be greater than 5.0 μM) | x (activity was measured to be greater than 5.0 μM)
CCOC(=O)N1C2CCC1CC(N1CCC3(C[C@H](NC(C)=O)c4cc(F)ccc43)C1)C2 (stereo partly drawn) [compound 928] | – | – | – | – | 25 to 100% | – | 25 to 100% | – | xxx (activity was measured to be less than 2.0 μM) | xxx (activity was measured to be less than 2.0 μM)
CC(=O)N1CC2(CCN(CC3CCOCC3)CC2)c2cc(F)ccc21 [compound 644] | – | – | – | – | < 25% | x (activity was measured to be greater than 5.0 μM) | < 25% | x (activity was measured to be greater than 5.0 μM) | – | –
CCOC(=O)N1CCC(N2CCC3(CC2)CN(C(=O)OCCF)c2ccc(F)cc23)CC1 [compound 370] | xx (activity was measured to be between 0.1 μM and 1.0 μM) | > 85% | xxx (activity was measured to be less than 0.1 μM) | 65 to 85% | – | – | – | – | – | –
CCOC(=O)N1C2CCC1CC(N1CCC3(CC[C@H](NS(C)(=O)=O)c4ccccc43)CC1)C2 (stereo partly drawn) [compound 809] | – | – | – | – | 25 to 100% | – | 25 to 100% | – | xxx (activity was measured to be less than 2.0 μM) | xxx (activity was measured to be less than 2.0 μM)
COCCOC(=O)N1CCC(N2CCC3(CC2)CN(C(=O)N(C)C)c2ccc(F)cc23)CC1 [compound 265] | xx (activity was measured to be between 0.1 μM and 1.0 μM) | < 65% | xx (activity was measured to be between 0.1 μM and 1.0 μM) | < 65% | – | – | – | – | – | –
CN(C)C(=O)N1CC2(CCN(C3CCN(C(=O)c4ccsc4)CC3)CC2)c2cc(F)ccc21 [compound 812] | – | – | – | – | < 25% | – | 25 to 100% | – | x (activity was measured to be greater than 5.0 μM) | xx (activity was measured to be between 2.0 μM and 5.0 μM)
CC(=O)N[C@H]1CC2(CCN(C3CCC(c4ccccc4)CC3)CC2)c2ccccc21 (stereo partly drawn) [compound 273] | xx (activity was measured to be between 0.1 μM and 1.0 μM) | > 85% | xxx (activity was measured to be less than 0.1 μM) | > 85% | – | – | – | – | – | –
